Source: article PMC5218480 (PLoS ONE, 2017)

Test system: MV-4-11 cells
Assay: Gene expression microarray analysis (Affymetrix PrimeView) and GSEA
Format: cell-based, human
Set-up: RFU PODN (11730768_x_at) / Fold change /veh PODN (11730768_x_at) / RFU LINC00158 (11744669_a_at) / Fold change /veh LINC00158 (11744669_a_at) / RFU DUSP10 (11751237_a_at) / Fold change /veh DUSP10 (11751237_a_at) / RFU ID3 (11757404_x_at) / Fold change /veh ID3 (11757404_x_at) / RFU PLEKHG5 (11737974_s_at) / Fold change /veh PLEKHG5 (11737974_s_at) / RFU LRRC4B (11730491_at) / Fold change /veh LRRC4B (11730491_at) / RFU GIMAP4 (11747438_a_at) / Fold change /veh GIMAP4 (11747438_a_at) / RFU KRT8 (11758183_x_at) / Fold change /veh KRT8 (11758183_x_at) / RFU CNN1 (11734310_a_at) / Fold change /veh CNN1 (11734310_a_at) / RFU VPS37D (11726825_at) / Fold change /veh VPS37D (11726825_at) / RFU C10orf10 (11716522_x_at) / Fold change /veh C10orf10 (11716522_x_at) / RFU KIR2DL2 /// KIR2DL4 /// KIR2DL5A /// KIR2DL5B /// KIR2DS1 /// KIR2DS2 /// KIR2DS3 /// KIR2DS4 /// KIR3DL3 /// KIR3DL3 /// KIR3DS1 (11738374_at) / Fold change /veh KIR2DL2 /// KIR2DL4 /// KIR2DL5A /// KIR2DL5B /// KIR2DS1 /// KIR2DS2 /// KIR2DS3 /// KIR2DS4 /// KIR3DL3 /// KIR3DL3 /// KIR3DS1 (11738374_at) / RFU C1QL1 (11718748_at) / Fold change /veh C1QL1 (11718748_at) / RFU TMPRSS4 (11747572_a_at) / Fold change /veh TMPRSS4 (11747572_a_at) / RFU HAMP (11756126_x_at) / Fold change /veh HAMP (11756126_x_at) / RFU RNFT2 (11725882_a_at) / Fold change /veh RNFT2 (11725882_a_at) / RFU NR4A2 (11747474_a_at) / Fold change /veh NR4A2 (11747474_a_at) / RFU ABCC12 (11746883_a_at) / Fold change /veh ABCC12 (11746883_a_at) / RFU TMEM136 (11760407_x_at) / Fold change /veh TMEM136 (11760407_x_at) / RFU CLDN22 /// WWC2 (11732394_at) / Fold change /veh CLDN22 /// WWC2 (11732394_at) / RFU HLA-DPB1 (11760878_x_at) / Fold change /veh HLA-DPB1 (11760878_x_at) / RFU SPINT1 (11716480_a_at) / Fold change /veh SPINT1 (11716480_a_at) / RFU GAP43 (11754022_s_at) / Fold change /veh GAP43 (11754022_s_at) / RFU A4GNT (11735810_at) / Fold change /veh A4GNT (11735810_at) / RFU PRB3 (11715151_x_at) / Fold change /veh PRB3 (11715151_x_at) / RFU TUBB4B (11761932_at) / Fold change /veh TUBB4B (11761932_at) / RFU CAPN14 (11732068_a_at) / Fold change /veh CAPN14 (11732068_a_at) / RFU TMCC2 (11721928_a_at) / Fold change /veh TMCC2 (11721928_a_at) / RFU IRGQ (11745062_a_at) / Fold change /veh IRGQ (11745062_a_at) / RFU FAM174B (11720279_a_at) / Fold change /veh FAM174B (11720279_a_at) / RFU TMPRSS4 (11748680_a_at) / Fold change /veh TMPRSS4 (11748680_a_at) / RFU FAM212B (11763350_a_at) / Fold change /veh FAM212B (11763350_a_at) / RFU PLEKHG5 (11743358_a_at) / Fold change /veh PLEKHG5 (11743358_a_at) / RFU ZSCAN30 (11745921_a_at) / Fold change /veh ZSCAN30 (11745921_a_at) / RFU CMKLR1 (11741424_a_at) / Fold change /veh CMKLR1 (11741424_a_at) / RFU LOC101060620 /// MAPK8IP1 (11723275_at) / Fold change /veh LOC101060620 /// MAPK8IP1 (11723275_at) / RFU SPTSSB (11747773_x_at) / Fold change /veh SPTSSB (11747773_x_at) / RFU PRSS12 (11739890_at) / Fold change /veh PRSS12 (11739890_at) / RFU BIN1 (11741810_x_at) / Fold change /veh BIN1 (11741810_x_at) / RFU WNT11 (11732464_a_at) / Fold change /veh WNT11 (11732464_a_at) / RFU C10orf10 (11716521_a_at) / Fold change /veh C10orf10 (11716521_a_at) / RFU C5orf56 (11738089_at) / Fold change /veh C5orf56 (11738089_at) / RFU CYB561 (11721691_x_at) / Fold change /veh CYB561 (11721691_x_at) / RFU ANKRD19P (11752326_a_at) / Fold change /veh ANKRD19P (11752326_a_at) / RFU OR2T12 /// OR2T33 /// OR2T8 (11738714_s_at) / Fold change /veh OR2T12 /// OR2T33 /// OR2T8 (11738714_s_at) / RFU VCAN (11748164_a_at) / Fold change /veh VCAN (11748164_a_at) / RFU JSRP1 (11732532_at) / Fold change /veh JSRP1 (11732532_at) / RFU KRTAP10-11 (11738290_x_at) / Fold change /veh KRTAP10-11 (11738290_x_at) / RFU MYO3A (11730013_a_at) / Fold change /veh MYO3A (11730013_a_at) / RFU EBF3 (11725865_a_at) / Fold change /veh EBF3 (11725865_a_at) / RFU CAMK2N1 (11719241_x_at) / Fold change /veh CAMK2N1 (11719241_x_at) / RFU C5orf56 (11738088_a_at) / Fold change /veh C5orf56 (11738088_a_at) / RFU OLFML3 (11715873_a_at) / Fold change /veh OLFML3 (11715873_a_at) / RFU LOC100653217 /// NTM (11731650_a_at) / Fold change /veh LOC100653217 /// NTM (11731650_a_at) / RFU MAPK11 (11762145_a_at) / Fold change /veh MAPK11 (11762145_a_at) / RFU FIZ1 (11724087_x_at) / Fold change /veh FIZ1 (11724087_x_at) / RFU OASL (11726364_x_at) / Fold change /veh OASL (11726364_x_at) / RFU SOX15 (11748057_x_at) / Fold change /veh SOX15 (11748057_x_at) / RFU CD79A (11719716_a_at) / Fold change /veh CD79A (11719716_a_at) / RFU HIST1H1D (11736915_at) / Fold change /veh HIST1H1D (11736915_at) / RFU CASKIN2 (11723855_a_at) / Fold change /veh CASKIN2 (11723855_a_at) / RFU LOC730098 (11760151_x_at) / Fold change /veh LOC730098 (11760151_x_at) / RFU OR4N2 (11742367_at) / Fold change /veh OR4N2 (11742367_at) / RFU PRRT2 (11749266_a_at) / Fold change /veh PRRT2 (11749266_a_at) / RFU SNX32 (11753110_a_at) / Fold change /veh SNX32 (11753110_a_at) / RFU CDHR5 (11726645_a_at) / Fold change /veh CDHR5 (11726645_a_at) / RFU RCAN1 (11760418_a_at) / Fold change /veh RCAN1 (11760418_a_at) / RFU FAM167A (11723789_a_at) / Fold change /veh FAM167A (11723789_a_at) / RFU FAM26E (11764081_at) / Fold change /veh FAM26E (11764081_at) / RFU ISYNA1 (11749810_s_at) / Fold change /veh ISYNA1 (11749810_s_at) / RFU ACY1 (11761880_at) / Fold change /veh ACY1 (11761880_at) / RFU 11764098_at / Fold change /veh 11764098_at / RFU SAMD14 (11745864_x_at) / Fold change /veh SAMD14 (11745864_x_at) / RFU NPB (11741838_a_at) / Fold change /veh NPB (11741838_a_at) / RFU TMPRSS6 (11731388_a_at) / Fold change /veh TMPRSS6 (11731388_a_at) / RFU KRTAP10-2 (11738614_at) / Fold change /veh KRTAP10-2 (11738614_at) / RFU ARHGAP8 /// PRR5-ARHGAP8 (11727945_x_at) / Fold change /veh ARHGAP8 /// PRR5-ARHGAP8 (11727945_x_at) / RFU KRTAP5-7 /// NADSYN1 (11734609_at) / Fold change /veh KRTAP5-7 /// NADSYN1 (11734609_at) / RFU RASL12 (11751679_a_at) / Fold change /veh RASL12 (11751679_a_at) / RFU CDKN2B (11736163_a_at) / Fold change /veh CDKN2B (11736163_a_at) / RFU PRF1 (11729649_at) / Fold change /veh PRF1 (11729649_at) / RFU, ZNF638 /// ZNF638-IT1 / Fold change vs veh, ZNF638 /// ZNF638-IT1 / RFU, PANK3 / Fold change vs veh, PANK3 / RFU, SH3YL1 / Fold change vs veh, SH3YL1 / RFU, ZEB2 / Fold change vs veh, ZEB2 / RFU, NRIP1 / Fold change vs veh, NRIP1 / RFU, PTTG1IP / Fold change vs veh, PTTG1IP / RFU, CAPN2 / Fold change vs veh, CAPN2 / RFU, MED14 / Fold change vs veh, MED14 / RFU, SNORA58 / Fold change vs veh, SNORA58 / RFU, C1orf63 / Fold change vs veh, C1orf63 / RFU, LRRFIP1 / Fold change vs veh, LRRFIP1 / RFU, NDUFAF7 / Fold change vs veh, NDUFAF7 / RFU, SLC12A2 / Fold change vs veh, SLC12A2 / RFU, IBTK / Fold change vs veh, IBTK / RFU, ESF1 / Fold change vs veh, ESF1 / Fold change vs veh, TMEM50B / RFU, TAOK1 / Fold change vs veh, TAOK1 / RFU, ACBD3 / Fold change vs veh, ACBD3 / RFU, TMA16 / Fold change vs veh, TMA16 / RFU, RWDD3 / Fold change vs veh, RWDD3 / RFU, BCAT1 / Fold change vs veh, BCAT1 / RFU, EDEM3 / Fold change vs veh, EDEM3 / RFU, TMEM33 / Fold change vs veh, TMEM33 / RFU, WDR75 / Fold change vs veh, WDR75 / RFU, AHCTF1 / Fold change vs veh, AHCTF1 / RFU, TFRC / Fold change vs veh, TFRC / RFU, ZDHHC17 / Fold change vs veh, ZDHHC17 / RFU, NOM1 / Fold change vs veh, NOM1 / RFU, ARL8B / Fold change vs veh, ARL8B / RFU, ZBTB11 / Fold change vs veh, ZBTB11 / RFU, TAMM41 / Fold change vs veh, TAMM41 / RFU, KIAA1704 /// LOC100996395 / Fold change vs veh, KIAA1704 /// LOC100996395 / RFU, ING1 / Fold change vs veh, ING1 / RFU, TRMT61B / Fold change vs veh, TRMT61B / RFU, FUBP3 / Fold change vs veh, FUBP3 / RFU, TP53 / Fold change vs veh, TP53 / RFU, TNKS2 / Fold change vs veh, TNKS2 / RFU, ZFP14 / Fold change vs veh, ZFP14 / RFU, ACTR2 / Fold change vs veh, ACTR2 / RFU, PPP3R1 / Fold change vs veh, PPP3R1 / RFU, PIK3R1 / Fold change vs veh, PIK3R1 / RFU, HNRNPA1 / Fold change vs veh, HNRNPA1 / RFU, RNF170 / Fold change vs veh, RNF170 / RFU, ZNF28 / Fold change vs veh, ZNF28 / RFU, RNGTT / Fold change vs veh, RNGTT / RFU, OGT / Fold change vs veh, OGT / RFU, BRD1 / Fold change vs veh, BRD1 / RFU, MARS / Fold change vs veh, MARS / RFU, ZNF655 / Fold change vs veh, ZNF655 / RFU, FAHD1 / Fold change vs veh, FAHD1 / RFU, BDP1 / Fold change vs veh, BDP1 / RFU, LRRCC1 / Fold change vs veh, LRRCC1 / RFU, ARID1A / Fold change vs veh, ARID1A / RFU, ZNF146 / Fold change vs veh, ZNF146 / RFU, ZNF330 / Fold change vs veh, ZNF330 / RFU, GPN3 / Fold change vs veh, GPN3 / RFU, C9orf123 / Fold change vs veh, C9orf123 / RFU, N4BP2L2 / Fold change vs veh, N4BP2L2 / RFU, ARFIP1 / Fold change vs veh, ARFIP1 / RFU, FAM179B / Fold change vs veh, FAM179B / RFU, BCL10 / Fold change vs veh, BCL10 / RFU, UHRF1BP1L / Fold change vs veh, UHRF1BP1L / RFU, BET1 / Fold change vs veh, BET1 / RFU, CNOT2 / Fold change vs veh, CNOT2 / RFU, ZNF268 / Fold change vs veh, ZNF268 / Fold change vs veh, ZNF507 / RFU, DGCR2 / Fold change vs veh, DGCR2 / RFU, WDSUB1 / Fold change vs veh, WDSUB1 / Fold change vs veh, HSP90B1 /// MIR3652 / RFU, ADSS / Fold change vs veh, ADSS / RFU, GK / Fold change vs veh, GK / RFU, ZNF148 / Fold change vs veh, ZNF148 / RFU, TAF9 / Fold change vs veh, TAF9 / RFU, SLC1A5 / Fold change vs veh, SLC1A5 / RFU, SLMO2 / Fold change vs veh, SLMO2 / RFU, ABCC4 / Fold change vs veh, ABCC4 / RFU, LOC101060439 /// RAP1B / Fold change vs veh, LOC101060439 /// RAP1B / RFU, RFX7 / Fold change vs veh, RFX7 / RFU, GTPBP10 / Fold change vs veh, GTPBP10 / RFU, CNEP1R1 / Fold change vs veh, CNEP1R1 / RFU, BIVM-ERCC5 /// ERCC5 / Fold change vs veh, BIVM-ERCC5 /// ERCC5 / RFU, ILF3 / Fold change vs veh, ILF3 / RFU 11762660_at / Fold change /veh 11762660_at / RFU VCAN (11757783_s_at) / Fold change /veh VCAN (11757783_s_at) / RFU DDX43 (11728927_at) / Fold change /veh DDX43 (11728927_at) / RFU KRT8 (11758188_x_at) / Fold change /veh KRT8 (11758188_x_at) / RFU NKD1 (11759106_at) / Fold change /veh NKD1 (11759106_at) / RFU SRD5A1 (11742802_a_at) / Fold change /veh SRD5A1 (11742802_a_at) / RFU TPSAB1 /// TPSB2 (11721975_s_at) / Fold change /veh TPSAB1 /// TPSB2 (11721975_s_at) / RFU GSTM3 (11746129_a_at) / Fold change /veh GSTM3 (11746129_a_at) / RFU IL23R (11737362_x_at) / Fold change /veh IL23R (11737362_x_at) / RFU TMEM51 (11727254_a_at) / Fold change /veh TMEM51 (11727254_a_at) / RFU PIWIL2 (11732686_x_at) / Fold change /veh PIWIL2 (11732686_x_at) / RFU ORM1 (11744905_x_at) / Fold change /veh ORM1 (11744905_x_at) / RFU CCDC152 (11743942_at) / Fold change /veh CCDC152 (11743942_at) / RFU ECM1 (11717891_a_at) / Fold change /veh ECM1 (11717891_a_at) / RFU IL23R (11748794_a_at) / Fold change /veh IL23R (11748794_a_at) / RFU TNFAIP8L3 (11732012_x_at) / Fold change /veh TNFAIP8L3 (11732012_x_at) / RFU MBOAT4 (11741988_at) / Fold change /veh MBOAT4 (11741988_at) / RFU 11764193_at / Fold change /veh 11764193_at / RFU TMEM53 (11763286_at) / Fold change /veh TMEM53 (11763286_at) / RFU MAGEB2 (11727129_at) / Fold change /veh MAGEB2 (11727129_at) / RFU TMEM200A (11744735_a_at) / Fold change /veh TMEM200A (11744735_a_at) / RFU CCDC152 (11751479_a_at) / Fold change /veh CCDC152 (11751479_a_at) / RFU FAM211A (11726209_a_at) / Fold change /veh FAM211A (11726209_a_at) / RFU RGS16 (11746705_a_at) / Fold change /veh RGS16 (11746705_a_at) / RFU VCAN (11755009_s_at) / Fold change /veh VCAN (11755009_s_at) / RFU RHOB (11743442_s_at) / Fold change /veh RHOB (11743442_s_at) / RFU RGS16 (11720943_a_at) / Fold change /veh RGS16 (11720943_a_at) / RFU RGS16 (11720944_at) / Fold change /veh RGS16 (11720944_at) / RFU, VPS4B / Fold change vs veh, VPS4B / RFU, CREB1 / Fold change vs veh, CREB1 / RFU, DNAJC13 / Fold change vs veh, DNAJC13 / RFU, GNAQ / Fold change vs veh, GNAQ / RFU, CDK5R1 / Fold change vs veh, CDK5R1 / RFU, ZRANB3 / Fold change vs veh, ZRANB3 / RFU, CUL4A / Fold change vs veh, CUL4A / RFU, CCNY / Fold change vs veh, CCNY / RFU, UFL1 / Fold change vs veh, UFL1 / RFU, COG3 / Fold change vs veh, COG3 / RFU, DIAPH2 / Fold change vs veh, DIAPH2 / RFU, SKA2 / Fold change vs veh, SKA2 / RFU, AFF3 / Fold change vs veh, AFF3 / RFU, LMF1 / Fold change vs veh, LMF1 / RFU, IPO11 / Fold change vs veh, IPO11 / RFU, DFFB / Fold change vs veh, DFFB / RFU, FOXP1 / Fold change vs veh, FOXP1 / RFU, CARD8 / Fold change vs veh, CARD8 / RFU, STRN3 / Fold change vs veh, STRN3 / RFU, ADK / Fold change vs veh, ADK / RFU, RASSF2 / Fold change vs veh, RASSF2 / RFU, WIPF1 / Fold change vs veh, WIPF1 / RFU, LARP1B / Fold change vs veh, LARP1B / RFU, RASA1 / Fold change vs veh, RASA1 / RFU, RB1 / Fold change vs veh, RB1 / RFU, PPFIA1 / Fold change vs veh, PPFIA1 / RFU, MAT2A / Fold change vs veh, MAT2A / RFU, CCT5 / Fold change vs veh, CCT5 / RFU, WDR92 / Fold change vs veh, WDR92 / RFU, CUX1 / Fold change vs veh, CUX1 / RFU, TTC7A / Fold change vs veh, TTC7A / RFU, TMEM135 / Fold change vs veh, TMEM135 / RFU, DEPTOR / Fold change vs veh, DEPTOR / RFU, CPM / Fold change vs veh, CPM / RFU, DNAJB6 / Fold change vs veh, DNAJB6 / RFU, CACNA2D3 / Fold change vs veh, CACNA2D3 / RFU, DTX4 / Fold change vs veh, DTX4 / RFU, TFCP2 / Fold change vs veh, TFCP2 / RFU, GMCL1 /// GMCL1P1 / Fold change vs veh, GMCL1 /// GMCL1P1 / RFU, AEBP2 / Fold change vs veh, AEBP2 / RFU, SNHG1 /// SNORD22 /// SNORD25 /// SNORD26 /// SNORD27 /// SNORD28 /// SNORD29 /// SNORD31 / Fold change vs veh, SNHG1 /// SNORD22 /// SNORD25 /// SNORD26 /// SNORD27 /// SNORD28 /// SNORD29 /// SNORD31 / Fold change (Aza/veh), C12orf56 (ProbeSet 11735607_a_at) / Fold change (ACY-1035/veh), C12orf56 (ProbeSet 11735607_a_at) / Fold change (Aza/veh), FGFR1OP (ProbeSet 11751329_s_at) / Fold change (ACY-1035/veh), FGFR1OP (ProbeSet 11751329_s_at) / Fold change (Aza/veh), VPS36 (ProbeSet 11739960_a_at) / Fold change (ACY-1035/veh), VPS36 (ProbeSet 11739960_a_at) / RFU SYPL1 (11715823_x_at) / Fold change /veh SYPL1 (11715823_x_at) / RFU IGFBP7 (11715501_s_at) / Fold change /veh IGFBP7 (11715501_s_at) / RFU REEP3 (11722064_at) / Fold change /veh REEP3 (11722064_at) / RFU IGLL1 (11728026_x_at) / Fold change /veh IGLL1 (11728026_x_at): dose or concentration left out as unconfirmed
Conditions: MV-4-11 cells, 48 hours

Nc1ccc(-c2cccs2)cc1NC(=O)c1ccc2c(c1)cc(C1CC1)n2CCN1CCOCC1 [ACY-1035]
Fold change /veh CDHR5 (11726645_a_at): 1.11
